Read-outs that look alike come from different tables or passages of the source.
Assays:
[1] = test system: Trypanosoma brucei brucei 427 cells; assay: T. brucei culture and assay (PrestoBlue); assay type: cell-based
[2] = test system: Leishmania amazonensis promastigotes expressing beta-lactamase; assay: microbe, parasite or virus in culture; assay type: cell-based
Experimental: Leishmania amazonensis promastigotes expressing beta-lactamase (Buckner et al., Am. J. Trop. Med. Hyg. 72 (2005) 600-605. doi:72/5/600 [pii]) were cultured in RPMI supplemented with 10% fetal calf serum and 1% pen-strep-glut solution (Sigma) at 27° C. Stationary phase promastigotes were adjusted in fresh media, treated with compounds, and incubated at 37° C. At 24 hours, 100 uL of cultures was added to 50 uL of the CellTiter Glo® solution. Luminescence readings were taken with a spectrophotometer and used to calculate inhibition.

[3] = test system: Trypanosoma cruzi Tulahuen cells expressing beta-galactosidase; assay: T. cruzi intracellular assay (beta-galactosidase, L6 host cells)
[4] = test system: rat skeletal muscle cell line, L6; assay: cells; assay type: cell-based
Experimental: Cells were maintained in high glucose DMEM obtained from HyClone Laboratories (Logan, Utah) and supplemented with FCS and P/S at the same concentrations used for parasite culture. Cells were passaged every 3-4 days and maintained in a 37° C. humidified incubator in an atmosphere of 5% CO2. For assays. cells were detached, counted using a hemocytometer, and adjusted using fresh media to deliver 5×10^3 cells per well (90 μL) in black walled, flat clear bottom 96-well microtiter plates. After 3 h incubation for attachment, compounds diluted in culture medium were added (10 μL) to triplicate wells. Positive controls (cells treated with podophyllotoxin (Sigma, St. Louis, Mo.)), negative controls (untreated cells), solvent controls (DMSO) and media blanks were included on each plate. Following incubation for 71.5 h, 11 μL of PrestoBlue was added into each well.

[5] = Trypanosoma brucei, Table 1, mean of 2(+) independent trials, read-out: IC50 T. brucei
[6] = Leishmania amazonensis, read-out: IC50 L. amaz.
[7] = Trypanosoma cruzi, TULAHUEN, read-out: IC50 T. cruzi, Table 1, intracellular assay, mean of 2(+) trials (^c one trial)
[8] = Trypanosoma cruzi, TULAHUEN, read-out: IC50 T. cruzi, Table 2, intracellular assay, mean of 2(+) independent trials
[9] = Rattus norvegicus, Table 1, read-out: IC50 Toxicity (L6)
[10] = Table 2, mean of 2(+) independent trials, read-out: IC50 T. brucei
[11] = Table 2, L6 IC50 / L. amazonensis IC50
[12] = Table 2, L6 mammalian cells, read-out: IC50 Toxicity (L6)
[13] = Table 1, intracellular T. cruzi IC50
[14] = Table 3A, estimated from highest L6 dose tested where no L6 IC50
[15] = Trypanosoma cruzi, TULAHUEN, read-out: IC50 TC-I, Table 3A, weighted means of two or more independent trials
[16] = Rattus norvegicus, Table 3A, weighted means of two or more independent trials, read-out: IC50 L6
[17] = Table 2, L6 IC50 / T. brucei IC50
[18] = Table 2, L6 IC50 / T. cruzi IC50 (intracellular assay)
[19] = Table 3C, estimated from highest L6 dose tested where L6 IC50 not reached

SMILES | IC50 [1, 5] [µM] | IC50 [2, 6] [µM] | IC50 [3, 7] [µM] | IC50 [3, 8] [µM] | IC50 [4, 9] [µM] | Selectivity L6/La [2, 11] | IC50 [4, 12] [µM] | Selectivity L6/La ([2]; Table 1) | Selectivity L6/Tc [3, 13] | Selectivity L6/TC-I [3, 14] | IC50 [3, 15] [µM] | IC50 [4, 16] [µM] | Selectivity L6/Tb ([1]; Table 1) | Selectivity L6/Tb [1, 17] | Selectivity L6/Tc [3, 18] | further results
COc1ccc(/C=C2\Oc3cc(O)ccc3C2=O)cc1O [Aurone 2911, (Z)-6-hydroxy-2-(3-hydroxy-4-methoxybenzylidene)benzofuran-3(2H)-one] | > 50 | 6.51 | > 50 | > 50 | 52.6 |  |  |  |  |  |  |  |  |  |  | 
COc1ccc(/C=C2\Oc3cc(O)ccc3C2=O)c(OC)c1OC [Aurone 2912, (Z)-6-hydroxy-2-(2,3,4-trimethoxybenzylidene)benzofuran-3(2H)-one] | > 50 | 25.7 | > 50 |  | > 100 |  |  |  |  |  |  |  |  |  |  | 
O=C1/C(=C/[c-]2cccc2)Oc2ccccc21.[Fe+2].c1cc[cH-]c1 [Aurone 3001] |  |  |  |  |  | >100 | > 100 |  |  |  |  |  |  |  |  | IC50 ([1]; Table 1, mean of 2(+) independent trials, read-out: IC50 T. brucei): > 50 µM; IC50 [1, 10]: > 50 µM; IC50 ([1]; Table 3C, weighted means of two or more independent trials, read-out: IC50 TB): > 50 µM; IC50 ([2]; Table 1, mean of 2(+) trials, ^c value from one trial, read-out: IC50 L. amaz.): < 1 µM; IC50 ([2]; Table 2, mean of 2(+) independent trials, read-out: IC50 L. amaz.): < 1 µM; IC50 ([3]; read-out: IC50 T. cruzi, Table 1, intracellular assay, mean of 2(+) trials (^c one trial)): > 50 µM; IC50 ([3]; read-out: IC50 T. cruzi, Table 2, intracellular assay, mean of 2(+) independent trials): > 50 µM; IC50 ([3]; read-out: IC50 TC-I, Table 3C, intracellular T. cruzi, weighted means of two or more independent trials): > 50 µM; IC50 ([4]; Table 1, read-out: IC50 Toxicity (L6)): > 100 µM; IC50 ([4]; Table 3C, weighted means of two or more independent trials, read-out: IC50 L6): > 100 µM
N#Cc1ccccc1/C=C1\Oc2ccccc2C1=O [Aurone 3007, (Z)-2-((3-oxobenzofuran-2(3H)-ylidene)methyl)benzonitrile] | > 50 | 17.6 | 46.6 |  | > 100 |  |  | >5.69 | >2.14 | >2.14 | 46.6 | > 100 |  |  |  | 
COc1ccc(/C=C2\Oc3ccccc3C2=O)cc1 [Aurone 6601, (Z)-2-(4-methoxybenzylidene)benzofuran-3(2H)-one] | 40.3 | 3.3 | 10.8 | 10.8 | > 100 | >30.30 | > 100 | >30.30 | >9.28 | >9.28 | 10.8 | > 100 | >2.48 | >2.48 | >9.28 | Selectivity L6/Tb [1, 14]: >2.48
O=C1/C(=C/c2ccccc2)Oc2ccccc21 [Aurone 6615, (Z)-2-benzylidenebenzofuran-3(2H)-one] | 40.1 | 4.13 | 15.8 | 15.8 | 329 |  |  | 79.77 | 20.88 | 20.88 | 15.8 | 329 | 8.22 | 8.22 | 20.88 | Selectivity L6/Tb [1, 14]: 8.22
O=C1/C(=C/c2ccc(/C=C3\Oc4ccccc4C3=O)cc2)Oc2ccccc21 [Aurone 6617, (2Z,2′Z)-2,2′-(1,4-phenylenebis(methanylylidene))bis(benzofuran-3(2H)-one)] | 35.4 | 3.62 | 39.1 | 39.1 | > 400 | >110.50 | > 400 | >110.50 | >10.22 |  |  |  | >11.31 | >11.31 | >10.22 | Selectivity L6/Tb [1, 19]: >11.31; Selectivity L6/TC-I [3, 19]: >10.22; IC50 ([3]; Trypanosoma cruzi, TULAHUEN, read-out: IC50 TC-I, Table 3C, intracellular T. cruzi, weighted means of two or more independent trials): 39.1 µM; IC50 ([4]; Rattus norvegicus, Table 3C, weighted means of two or more independent trials, read-out: IC50 L6): > 400 µM
COc1ccc(/C=C2\Oc3cc(O)ccc3C2=O)cc1 [Aurone 6620, (Z)-6-hydroxy-2-(4-methoxybenzylidene)benzofuran-3(2H)-one] | < 1 | < 1 | 35.1 | 35.1 | > 100 | >100 | > 100 | >100 | >2.85 |  |  |  | >100 | >100 | >2.85 | IC50 [1, 10]: < 1 µM; IC50 ([2]; Leishmania amazonensis, read-out: IC50 L. amaz. (footnote c: value obtained from one trial)): < 1 µM
